Results reported in patent US20030144347A1, “Method for treating autoimmune disease” (priority 2001, published 2003).

Legend:
human epilepsy = details: clinical trials; cited from earlier work
[1] = test system: patient suffering from multiple autoimmune diseases; test: Case report: patient suffering from multiple autoimmune diseases; assay type: in vivo, human; details: Example 15
Description: A patient suffering from multiple autoimmune diseases was treated with topiramate. The patient was suffering from systemic lupus erythematosis (SLE) acquired anemia of gamma globulins, rheumatoid arthritis, Renaud's phenomena and Hashimotos thyroiditis. The patient was also taking medrol at doses of 32 mg per day and up to 132 mg per day and 25 mg weekly injections of methotrexate.
The topiramate treatment was begun at 15 mg per day and increased weekly by 15 mg to […] and then stabilized at 50 mg per day after two months. […] The frequency and intensity of their iritis, which was occurring every one to two months and lasting for 1 to 2 weeks, described as an “incredible pain relieved only by wrapping my eyes and head with a black towel”, decreased. It has occurred only once since using Topamax® when their parent was dying. […] The patient drove to their last appointment, which is the first time they have been able to do so in five years. They have now had consistent benefits for more than 6 months.

[2] = test system: patient suffering from diabetes, Type 1; test: Case report: patient suffering from diabetes, Type 1; assay type: in vivo, human; details: Example 2
Description: A patient suffering from diabetes, Type 1, was administered 25 mg per day of topiramate for 10 days, which was then increased to 50 mg per day.

[3] = test system: patient suffering from pemphigus vulgaris; test: Case reports: patients suffering from pemphigus vulgaris; assay type: in vivo, human
Description: A patient suffering from pemphigus vulgaris and taking 15 mg of chobetesol propionate per day began taking 15 mg per day of topiramate. The dose was increased to 45 mg in divided dosages over a three week period. […] This occurred and was maintained even after chobetesol propionate was reduced to 5 mg every 3 days, at 8 weeks from the initial dose of 15 mg per day. […] A patient suffering from permphigus vulgaris and taking 50 mg twice a day of immuran and 20 mg per day of prednisone began taking 15 mg per day of topiramate. The dose was increased to 45 mg per day in divided dosages over a three-week period. […] This occurred in spite of reducing the immuran to 50 mg and prednisone to 10 mg each day, which were their lowest dosages in two years. […] These improvements continued to be maintained at 20 weeks and Ig antibody was zero.

[4] = test system: rodent models of epilepsy; details: several rodent models of epilepsy; cited from earlier work
[5] = test system: patient suffering from multiple sclerosis; test: Case reports: patients suffering from multiple sclerosis treated with topiramate; assay type: in vivo, human
Description: A patient suffering from multiple sclerosis was administered 15 mg per day of topiramate. The dosage was increased after 15 days to 30 mg per day. At 15 mg, the patient's involuntary stretch rigid response stopped and the patient was able to get out of bed without falling backward when their feet touched the floor for the first time in nine years.
The patient previously took trazadone 100 mg at bedtime, clonazepan 1 mg three times a day, citalapram 40 mg each morning, gabapentrin 600 mg four times a day, and synthroid 25 mcg per day for two years. They had refused steroids and interferon because of side effects.
The Topamax was increased to 15 mg at bedtime and they reported “no bad bladder accidents” and that their leg and foot cramps had disappeared. […] They were discharged on Topamax 15 mg at bedtime along with previous medications. The patient was much improved medically and emotionally.
The patient returned four weeks later walking with a cane, having worked “10 to 14 hours per day and exhausted from my move with little sleep during the past month”. They reported “insatiable itching all over my body wherever my clothes touch the skin” which […] unsuccessfully tried to treat with cetirizine. […] said […] felt “dizzy, weak, Charlie horses in arches of feet and toes, unable to stand for more than 10 minutes before starting to have gait problems, problems sleeping, having trouble mentally and urine leaking”. […] working diagnoses are Axis I Bipolar disorder, not otherwise specified Axis III multiple sclerosis. […]

[6] = test system: patient suffering from ulcerative colitis; test: Case reports: patients suffering from ulcerative colitis; assay type: in vivo, human
[7] = Example 18, 15 mg at bedtime, two days later

Question: What does the source list for CC1(C)O[C@@H]2[C@@H](CO[C@@]3(COS(N)(=O)=O)OC(C)(C)O[C@@H]23)O1 [topiramate, 2,3:4,5-bis-O-(1-methylethylidence)-β-D-fructopyranose sulfamate]?
Answer: efficacy in simple and complex partial seizures and secondarily generalized seizures (human epilepsy): effective as adjunctive therapy or as monotherapy; time without another episode of iritis [1]: five; frequency and intensity of iritis ([1]; 50 mg per day): decreased; duration of consistent benefits ([1]; despite cessation of methotrexate): more than 6 months; pain when walking ([1]; up to 65 mg per day, stabilized at 50 mg per day, medrol reduced to 5 mg per day): very significant decrease in pain when walking; follow-up period with blood glucose remaining in that range [2]: 16 weeks; time at which improvement continued to be maintained ([3]; Example 13): 12 weeks; lesions ([3]; Example 13, 45 mg in divided dosages, chobetesol propionate reduced): began to shrink, dried up and formed a scab, which came off leaving normal skin; time at which improvements continued to be maintained ([3]; Example 14): 20 weeks; lesions ([3]; Example 14, 30 mg twice a day): second lesion healing; lesions ([3]; Example 14, 45 mg per day, at three weeks): one lesion was shrinking; lesions ([3]; Example 14, 45 mg per day, by four weeks, immuran and prednisone reduced): healed and the second lesion was beginning to shrink; Ig antibody ([3]; Example 14, at 20 weeks): zero; seizures [4]: effectively block seizures; duration of beneficial effect ([5]; Example 1, 12.5 mg per day): more than 10 months; involuntary stretch rigid response ([5]; Example 1, 15 mg per day): stopped; spastic rigid response ([5]; Example 1, dose lowered to 12.5 mg per day): no longer present; involuntary stretch rigid response ([5]; Example 1, higher dose of 30 mg per day): reversed this benefit; walking and back pain ([5]; Example 18, 7.5 mg at bedtime for three days): walking better and reported reduced back pain; leg and foot cramps ([5]; Example 18, 15 mg at bedtime): disappeared; urinary incontinence and back pain [5, 7]: no urinary incontinence or back pain; walking [5, 7]: walking without a cane; patient-reported symptoms ([5]; Example 18, 30 mg at bedtime, seen eight days later): no dizziness, weakness, urinary incontinence and decreased gait problems, itching and pain; duration of benefit ([6]; Example 8, 7.5 mg per day): more than 16 weeks; mucous ([6]; Example 8, 7.5 mg per day, after 7 days): decrease in mucous; mucous and bleeding ([6]; Example 8, 7.5 mg per day, after two weeks): no mucous or bleeding; adverse effect ([6]; Example 8, 15 mg per day): tired during the day; stools, bowel frequency, mucous ([6]; Example 8, 15 mg per day, after two weeks): stools became darker with increase bowel frequency of movements and mucous; mucous, bowel movements, bleeding ([6]; Example 8, resumed at 7.5 mg per day): decrease in mucous, bowel movements and bleeding; duration of benefit ([6]; Example 10, 7.5 mg per day): 18 weeks; bowel frequency, bleeding and mucous ([6]; Example 10, 15 mg per day, within one week): significant decrease in bowel frequency, bleeding and mucous; bowel frequency, bleeding and mucous ([6]; Example 10, dose increased to 30 and then to 45 mg per day): reversal of benefits and then a further exacerbation of systems; bowel frequency, bleeding and mucous ([6]; Example 10, resumed at 7.5 mg per day): significant decrease in frequency of bowel movement, bleeding and mucous
